# What was measured:
# [1] = tested on: carrageenan-induced oedema; experiment: Carrageenan model, paw oedema (plethysmometer); assay type: in vivo, rat; details: versus vehicle control
# Experimental: (§1) Male Random Hooded rats (180-220 g) were used. The test compound or vehicle was administered 30 mins before the 2nd test compound or vehicle. The test compound and vehicles used were: (i) Compound A in 1% DMSO, 66% Peg400, 33% distilled water and (ii) nabumetone in 1% DMSO, 66% Peg400, 33% distilled water. Both test compounds were administered via the oral route. After a further 30 mins 100 ul of 2% carrageenan was injected intraplantar into the left hind paw and the animals were then returned to their cages. Three hours later behavioural testing of the carrageenan-induced decrease in weight on the inflamed left hind paw (% weight on the inflammed left paw) and associated oedema was assessed. Weight bearing was measured using the dual channel weight averager and paw oedema was assessed using a plethysmometer. The dual channel weight averager is commercially available and is described in the following abstract: Validation of the dual channel weight averager as an instrument for the measurement of inflammatory pain, N. M. Clayton et al., 1997 British Journal Pharmacol. 120, 219P
# (§2) Note: Oedema is the presence of abnormally large amounts of fluid in the intercellular tissue spaces of the body and in the present example is used to provide a measure of inflammation (or anti-oedemic). Allodynia is a sensation of pain resulting from a non-injurious stimulus such as normal heat, cold or pressure on skin and in the present example the weight-bearing (allodynia) effect in used to provide a measure of analgesia.
# (§3) The methodology was as described for (a) above. The test compounds and vehicles used were: (i) Compound A in 1% DMSO, 66% Peg400, 33% distilled water and (ii) Compound B in 1% DMSO, 66% Peg400, 33% distilled water. Both compounds were administered via the oral route.
# [2] = tested on: carrageenan-induced allodynia (decrease in weight bearing on the inflamed left hind paw); experiment: Carrageenan model, weight bearing on inflamed left hind paw (dual channel weight averager); assay type: in vivo, rat; details: for % Inhibition Allodynia: versus vehicle control; for % Weight on inflamed paw (Allodynia): Table (A), 3 h after carrageenan, 50% = no pain
# Experimental: as §1, §2, §3
# [3] = Table (C), experiment (b), Compound B 3 mg/kg oral
# [4] = Table (B), experiment (a), Compound A 0.4 mg/kg oral
# [5] = Table (C), experiment (b), Compound A 0.4 mg/kg oral
# [6] = Table (B), experiment (a), nabumetone 3 mg/kg oral
structure (smiles),measurement,setting,value
"CCOc1ccc(-c2nn3ncccc3c2-c2ccc(S(C)(=O)=O)cc2)cc1 [Compound B, 2-(4-ethoxy-phenyl)-3-(4-methanesulfonyl-phenyl)-pyrazolo[1,5-b]pyridazine]",% Inhibition Oedema,[1]; [3],35.8 ± 3.6%
same,% Inhibition Allodynia,[2]; [3],45.4 ± 8.9%
"CC(C)(C)c1nnc([C@H]2O[C@@H](n3cnc4c(Nc5ccc(Cl)cc5F)ncnc43)[C@H](O)[C@@H]2O)o1 [Compound A, (2S, 3S, 4R, 5R)-2-(5 tert-butyl-[1,3,4]oxadiazol-2-yl)-5-[6-(4-chloro-2-fluoro-phenylamino)-purin-9-yl]-tetrahydro-furan-3,4-diol]",% Inhibition Oedema,[1]; [4],−7.4 ± 5.7%
same,% Inhibition Oedema,[1]; [5],24.9 ± 5.5%
same,% Weight on inflamed paw (Allodynia),[2]; Compound A 0.4 mg/kg oral,25.4 ± 2.9%
same,% Inhibition Allodynia,[2]; [4],17.0 ± 9.6%
same,% Inhibition Allodynia,[2]; [5],47.9 ± 11.1%
"COc1ccc2cc(CCC(C)=O)ccc2c1 [Nabumetone, nabumetone, reference compound]",% Inhibition Oedema,[1]; [6],−25.1 ± 4.7%
same,% Weight on inflamed paw (Allodynia),[2]; nabumetone 3 mg/kg oral,21.6 ± 3.6%
same,% Inhibition Allodynia,[2]; [6],4.3 ± 12.2%

# From US20030004128A1, “Formulatios of adenosine a1 agonists” (priority 1999, published 2003)
